pIC50: −log10 of the molar value.
Key:
Format in all cases: cell-based, human
hCGβ type II = hCGβ type II in supernatants of cancer cell lines after induction of DNA demethylation (KRYPTOR immunoassay); details: 10 cancer cell lines, 72 h at dose A or dose B, supernatant, vs cells not exposed (FIG. 4B)
Description: (§1) To further determine the impact of global demethylation on the expression of hCGβ type II and pro-EPIL, we used 5-aza-2′ deoxycytidine (5-aza-dC), a strong inducer of DNA de-methylation and measured the levels of hCGβ type II and pro-EPIL in the supernatants of 10 cancer cell lines of various histological origin, treated at two different doses of 5-aza-dC. On the curve of viability of each cell line treated with 5-aza-dC at increasing doses, the two selected doses that have been selected for studying the effect of global hypomethylation by 5-aza-dC on the production of hCGβ type II and pro-EPIL were the doses corresponding to the 5-aza-dC concentrations at the inflexion point and at the 50% inhibition of cell viability (Inhibition growth Concentration 50% or IC 50), respectively (FIG. 3 and Table 2).
(§2) Experiments were performed as previously described. Briefly, in 75 cm^2 size cell culture flaks, cell lines were grew up to more than 50% confluence before treating them for 72 h with 5-aza-dC at either the doses A corresponding at the Inflection Points, or the doses B corresponding to IC50. […] After trypsinisation, cells were counted in malassez chamber using trypan blue. […] Then, the pro-EPIL and hCG B type II concentrations were determined by an ELISA immunoassay and an automated KRYPTOR immunoassay, respectively (Table 2, FIG. 4A, FIG. 4B).

TC320X6 = assay: Cell viability (WST-1) with 5-aza-dC at increasing doses; details: 96 h
Description: as §1
(§3) Briefly, 10,000 cells were plated in 96-well plates in 100 μl medium. After one day, dilution range of 5-aza-dC from 1,000 μM to 0.06 μM were added. After 96 h incubation time, 10 μl of WST-1 were added and optical density (O.D) were measured at 450 nm (FIG. 3 and Table 2).

BC173 = assay: as above; details: 96 h
Description: as §1, §3

HT1376 = assay: as above
Description: as §1, §3

SHP77 = assay: as above
Description: as §1, §3

CLRB018P = assay: as above; details: 96 h
Description: as §1, §3

JAR = assay: as above; details: 96 h
Description: as §1, §3

JEG = assay: as above; details: 96 h
Description: as §1, §3

A549 = assay: as above
Description: as §1, §3

OBR = assay: as above; details: 96 h
Description: as §1, §3

LCF09 = assay: as above; details: 96 h
Description: as §1, §3

pro-EPIL = assay: Pro-EPIL in supernatants of cancer cell lines after induction of DNA demethylation (ELISA); details: 10 cancer cell lines, 72 h at dose A or dose B, supernatant, vs cells not exposed (FIG. 4A)
Description: as §1, §2

[1] = Homo sapiens, read-out: Dose B (5-aza-dC concentration at the 50% inhibition of cell viability, IC 50)

For Nc1ncn([C@H]2C[C@H](O)[C@@H](CO)O2)c(=O)n1 [5-aza-dC, 5-aza-2′ deoxycytidine], the “Cell lines with an increase in the production of hCGβ type II” value (hCGβ type II) was 7 out of 10, the pIC50 (TC320X6; [1]) was 4.11 and the “Dose A (5-aza-dC concentration at the inflexion point of the viability curve)” value (TC320X6; TC320X6, colon, WST-1) was 4 µM. For the same compound, the “Dose A (5-aza-dC concentration at the inflexion point of the viability curve)” value (BC173; BC173, breast, WST-1) was 1.95 µM, the pIC50 (BC173; [1]) was 3.93 and the “Dose A (5-aza-dC concentration at the inflexion point of the viability curve)” value (HT1376; HT1376, bladder, 96 h, WST-1) was 1.6 µM. The pIC50 (HT1376; Homo sapiens, HT-1376, 96 h, read-out: Dose B (5-aza-dC concentration at the 50% inhibition of cell viability, IC 50)) was 5.20, the pIC50 (SHP77; Homo sapiens, SHP77, 96 h, read-out: Dose B (5-aza-dC concentration at the 50% inhibition of cell viability, IC 50)) was 4.56 and the “Dose A (5-aza-dC concentration at the inflexion point of the viability curve)” value (SHP77; SHP77, lung, 96 h, WST-1) was 8 µM. For the same compound, the “Dose A (5-aza-dC concentration at the inflexion point of the viability curve)” value (CLRB018P; CLRB018P, colon, WST-1) was 15.6 µM, the pIC50 (CLRB018P; [1]) was 3.73 and the pIC50 (JAR; [1]) was 4.75. For the same compound, the “Dose A (5-aza-dC concentration at the inflexion point of the viability curve)” value (JAR; JAR, placenta, WST-1) was 2 µM, the pIC50 (JEG; [1]) was 5.30 and the “Dose A (5-aza-dC concentration at the inflexion point of the viability curve)” value (JEG; JEG, placenta, WST-1) was 2.6 µM. For the same compound, the “Dose A (5-aza-dC concentration at the inflexion point of the viability curve)” value (A549; A549, lung, 96 h, WST-1) was 12.5 µM, the pIC50 (A549; Homo sapiens, A549, 96 h, read-out: Dose B (5-aza-dC concentration at the 50% inhibition of cell viability, IC 50)) was 4.30 and the pIC50 (OBR; [1]) was 4.70. For the same compound, the “Dose A (5-aza-dC concentration at the inflexion point of the viability curve)” value (OBR; OBR, bladder, WST-1) was 6.5 µM, the pIC50 (LCF09; [1]) was 4.60 and the “Dose A (5-aza-dC concentration at the inflexion point of the viability curve)” value (LCF09; LCF09, lung, WST-1) was 5 µM. The “Effect on the production of pro-EPIL” value (pro-EPIL) was “induced consistently an increase”.

From patent publication US20150105281A1, “Method for the Selection of Serum Biomarkers of Epigenetic Alterations, Particularly of Global Hypomethylation and Their Uses” (Universite Paris Descartes, priority 2012, published 2015)
